#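 Results reflect a 48-hour exposure of cells in 96-well plates to compound at five concentrations. GI50 = concentration required for 50% inhibition of growth. TGI: concentration producing complete growth inhibition.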
# Key:
# Assay in all cases: NCI anticancer screen, dose series, 48 h
# 786-0 renal = system: 786-0 renal
# A498 renal = system: A498 renal
# A549 NSCLC = system: A549 NSCLC
# ACHN renal = system: ACHN renal
# BT-549 breast = system: BT-549 breast
# CAKI-1 renal = system: CAKI-1 renal
# CCRF-CEM leukemia = system: CCRF-CEM leukemia
# COLO 205 colon = system: COLO 205 colon
# DU-145 prostate = system: DU-145 prostate
# EKVX NSCLC = system: EKVX NSCLC
# HCC-2998 colon = system: HCC-2998 colon
# HCT-116 colon = system: HCT-116 colon
# HCT-15 colon = system: HCT-15 colon
# HOP-62 NSCLC = system: HOP-62 NSCLC
# HOP-92 NSCLC = system: HOP-92 NSCLC
# HS 578T breast = system: HS 578T breast
# HT29 colon = system: HT29 colon
# IGROV1 ovarian = system: IGROV1 ovarian
# K-562 leukemia = system: K-562 leukemia
# KM12 colon = system: KM12 colon
# LOX IMVI melanoma = system: LOX IMVI melanoma
# M14 melanoma = system: M14 melanoma
# MALME-3M melanoma = system: MALME-3M melanoma
# MCF7 breast = system: MCF7 breast
# MDA-MB-231 breast = system: MDA-MB-231 breast
# MDA-MB-435 = system: MDA-MB-435
# MDA-MB-468 breast = system: MDA-MB-468 breast
# MOLT-4 leukemia = system: MOLT-4 leukemia
# NCI-H226 lung = system: NCI-H226 lung
# NCI-H23 lung = system: NCI-H23 lung
# NCI-H460 lung = system: NCI-H460 lung
# NCI-H522 lung = system: NCI-H522 lung
# NCI/ADR-RES ovarian = system: NCI/ADR-RES ovarian
# OVCAR-3 ovarian = system: OVCAR-3 ovarian
# OVCAR-4 ovarian = system: OVCAR-4 ovarian
# OVCAR-5 ovarian = system: OVCAR-5 ovarian
# OVCAR-8 ovarian = system: OVCAR-8 ovarian
# PC-3 prostate = system: PC-3 prostate
# RPMI-8226 leukemia = system: RPMI-8226 leukemia
# RXF 393 renal = system: RXF 393 renal
# SF-268 CNS = system: SF-268 CNS
# SF-295 CNS = system: SF-295 CNS
# SF-539 CNS = system: SF-539 CNS
# SK-MEL-2 melanoma = system: SK-MEL-2 melanoma
# SK-MEL-28 melanoma = system: SK-MEL-28 melanoma
# SK-MEL-5 melanoma = system: SK-MEL-5 melanoma
# SK-OV-3 ovarian = system: SK-OV-3 ovarian
# SN12C renal = system: SN12C renal
# SNB-19 CNS = system: SNB-19 CNS
# SNB-75 CNS = system: SNB-75 CNS
# SR leukemia = system: SR leukemia
# SW-620 colon = system: SW-620 colon
# T-47D breast = system: T-47D breast
# TK-10 renal = system: TK-10 renal
# U251 CNS = system: U251 CNS
# UACC-257 melanoma = system: UACC-257 melanoma
# UACC-62 melanoma = system: UACC-62 melanoma
# UO-31 renal = system: UO-31 renal
smiles,measurement,setting,value
Fc1ccc(F)c(CNc2nc(SCCN3CCOCC3)nc3c2cnn3CC(Cl)c2ccc(Br)cc2)c1 (stereo unspecified),GI50,786-0 renal,2.62 µM
same,TGI,786-0 renal,17.3 µM
same,GI50,A498 renal,4.2 µM
same,TGI,A498 renal,> 100 µM
same,GI50,A549 NSCLC,3.09 µM
same,TGI,A549 NSCLC,> 100 µM
same,GI50,ACHN renal,3.65 µM
same,TGI,ACHN renal,> 100 µM
same,GI50,BT-549 breast,2.38 µM
same,TGI,BT-549 breast,5.96 µM
same,GI50,CAKI-1 renal,3.66 µM
same,TGI,CAKI-1 renal,> 100 µM
same,GI50,CCRF-CEM leukemia,2.81 µM
same,TGI,CCRF-CEM leukemia,> 100 µM
same,GI50,COLO 205 colon,2.13 µM
same,TGI,COLO 205 colon,4.98 µM
same,GI50,DU-145 prostate,6.12 µM
same,TGI,DU-145 prostate,> 100 µM
same,GI50,EKVX NSCLC,3.9 µM
same,TGI,EKVX NSCLC,> 100 µM
same,GI50,HCC-2998 colon,4.13 µM
same,TGI,HCC-2998 colon,> 100 µM
same,GI50,HCT-116 colon,2.61 µM
same,TGI,HCT-116 colon,> 100 µM
same,GI50,HCT-15 colon,1.76 µM
same,TGI,HCT-15 colon,6.15 µM
same,GI50,HOP-62 NSCLC,6.31 µM
same,TGI,HOP-62 NSCLC,> 100 µM
same,GI50,HOP-92 NSCLC,3.03 µM
same,TGI,HOP-92 NSCLC,23.9 µM
same,GI50,HS 578T breast,2.6 µM
same,TGI,HS 578T breast,> 100 µM
same,GI50,HT29 colon,1.14 µM
same,TGI,HT29 colon,2.68 µM
same,GI50,IGROV1 ovarian,5.03 µM
same,TGI,IGROV1 ovarian,> 100 µM
same,GI50,K-562 leukemia,1.77 µM
same,TGI,K-562 leukemia,> 100 µM
same,GI50,KM12 colon,3.72 µM
same,TGI,KM12 colon,> 100 µM
same,GI50,LOX IMVI melanoma,2.5 µM
same,TGI,LOX IMVI melanoma,7.65 µM
same,GI50,M14 melanoma,3.21 µM
same,TGI,M14 melanoma,> 100 µM
same,GI50,MALME-3M melanoma,1.89 µM
same,TGI,MALME-3M melanoma,5.15 µM
same,GI50,MCF7 breast,2.5 µM
same,TGI,MCF7 breast,8.54 µM
same,GI50,MDA-MB-231 breast,3.11 µM
same,TGI,MDA-MB-231 breast,18.6 µM
same,GI50,MDA-MB-435,2.91 µM
same,TGI,MDA-MB-435,10.4 µM
same,GI50,MDA-MB-468 breast,1.96 µM
same,TGI,MDA-MB-468 breast,4.88 µM
same,GI50,MOLT-4 leukemia,2.58 µM
same,TGI,MOLT-4 leukemia,> 100 µM
same,GI50,NCI-H226 lung,2.63 µM
same,TGI,NCI-H226 lung,8.3 µM
same,GI50,NCI-H23 lung,4.91 µM
same,TGI,NCI-H23 lung,> 100 µM
same,GI50,NCI-H460 lung,3.52 µM
same,TGI,NCI-H460 lung,> 100 µM
same,GI50,NCI-H522 lung,3.51 µM
same,TGI,NCI-H522 lung,91.3 µM
same,GI50,NCI/ADR-RES ovarian,3.13 µM
same,TGI,NCI/ADR-RES ovarian,> 100 µM
same,GI50,OVCAR-3 ovarian,5.71 µM
same,TGI,OVCAR-3 ovarian,> 100 µM
same,GI50,OVCAR-4 ovarian,3.22 µM
same,TGI,OVCAR-4 ovarian,> 100 µM
same,GI50,OVCAR-5 ovarian,4.59 µM
same,TGI,OVCAR-5 ovarian,> 100 µM
same,GI50,OVCAR-8 ovarian,3.77 µM
same,TGI,OVCAR-8 ovarian,> 100 µM
same,GI50,PC-3 prostate,2.63 µM
same,TGI,PC-3 prostate,62.6 µM
same,GI50,RPMI-8226 leukemia,2.66 µM
same,TGI,RPMI-8226 leukemia,> 100 µM
same,GI50,RXF 393 renal,1.41 µM
same,TGI,RXF 393 renal,4.83 µM
same,GI50,SF-268 CNS,4.27 µM
same,TGI,SF-268 CNS,> 100 µM
same,GI50,SF-295 CNS,3.34 µM
same,TGI,SF-295 CNS,> 100 µM
same,GI50,SF-539 CNS,3.57 µM
same,TGI,SF-539 CNS,> 100 µM
same,GI50,SK-MEL-2 melanoma,2.04 µM
same,TGI,SK-MEL-2 melanoma,5.04 µM
same,GI50,SK-MEL-28 melanoma,2.84 µM
same,TGI,SK-MEL-28 melanoma,> 100 µM
same,GI50,SK-MEL-5 melanoma,1.62 µM
same,TGI,SK-MEL-5 melanoma,3.01 µM
same,GI50,SK-OV-3 ovarian,8.7 µM
same,TGI,SK-OV-3 ovarian,> 100 µM
same,GI50,SN12C renal,3.22 µM
same,TGI,SN12C renal,> 100 µM
same,GI50,SNB-19 CNS,5.34 µM
same,TGI,SNB-19 CNS,> 100 µM
same,GI50,SNB-75 CNS,2.28 µM
same,TGI,SNB-75 CNS,> 100 µM
same,GI50,SR leukemia,3.63 µM
same,TGI,SR leukemia,> 100 µM
same,GI50,SW-620 colon,2.78 µM
same,TGI,SW-620 colon,13.8 µM
same,GI50,T-47D breast,2.81 µM
same,TGI,T-47D breast,38.1 µM
same,GI50,TK-10 renal,5.24 µM
same,TGI,TK-10 renal,> 100 µM
same,GI50,U251 CNS,3.77 µM
same,TGI,U251 CNS,> 100 µM
same,GI50,UACC-257 melanoma,3.25 µM
same,TGI,UACC-257 melanoma,65 µM
same,GI50,UACC-62 melanoma,1.75 µM
same,TGI,UACC-62 melanoma,3.73 µM
same,GI50,UO-31 renal,2.87 µM
same,TGI,UO-31 renal,> 100 µM

# Source: PubChem BioAssay (NCI)
